One assay has as its target EZH2 (Homo sapiens, UniProt Q15910). Put plainly: EZH2 nuc BSA Brij 1.5 (IC50): rPRC2, biotinylated oligonucleosome substrate, 3H SAM FlashPlate. Format: biochemical. To be noted: 2 nM EZH2, 0.2 μM biotinylated oligonucleosomes, 0.2 μM 3H SAM, 3.6 μM H3K27me3 peptide. Here is the method: EZH2 Nuc BSA Brij 1.5 (IC50):
Assays were carried out by mixing rPRC2 together with biotinylated oligonucleosome substrates in the presence of the radio-labeled enzyme co-factor, S-adenosyl-L-methionine (^3H SAM) (Perkin Elmer) and monitoring the enzymatically mediated transfer of tritiated methyl groups from ^3H SAM to histone lysine residues. The amount of resulting tritiated methyl histone product was measured by first capturing the biotinylated oligonucleosomes in streptavidin (SAV) coated FlashPlates (Perkin Elmer), followed by a wash step to remove un-reacted ^3H SAM, and then counting on a TopCount NXT 384 well plate scintillation counter (Perkin Elmer). The final assay conditions for EZH2 were as follows: 50 mM Tris Buffer pH 8.5, 1 mM DTT, 69 μM Brij-35 detergent, 5.0 mM MgCl2, 0.1 mg/mL BSA, 0.2 μM ^3H SAM, 0.2 μM biotinylated oligonucleosomes, 3.6 μM H3K27me3 peptide and 2 nM EZH2.
Compound IC50 Measurements were Obtained as Follows:
Compounds were first dissolved in 100% DMSO as 10 mM stock solutions. Ten point dose response curves were generated by dispensing varying amounts of the 10 mM compound solution in 10 wells of the 384 well plate (Echo; Labcyte), pure DMSO was then used to backfill the wells to insure all wells have the same amount of DMSO. A 12.5 μL volume of the HMT enzyme, H3K27me3 peptide and oligonucleosome substrate in assay buffer was added to each well of the assay plate using a Multidrop Combi (ThermoFisher). Compounds were pre-incubated with the enzyme for 20 min, followed by initiation of the methyltransferase reaction by addition of 12.5 μL of ^3H SAM in assay buffer (final volume=25 μL). The final concentrations of compounds ranged from a top default concentration of 80 μM down to 0.16 μM in ten 2-fold dilution steps. Reactions were carried out for 60 minutes and quenched with 20 μL per well of 1.96 mM SAH, 50 mM Tris pH 8.5, 200 mM EDTA. Stopped reactions were transferred to SAV coated Flashplates (Perkin Elmer), incubated for 120 min, washed with a plate washer, and then read on the TopCount NXT (1.0 min/well) to measure the amount of methyl histone product formed during the reaction. The amount of methyl histone product was compared with the amount of product formed in the 0% and 100% inhibition control wells allowing the calculation of % Inhibition in the presence of the individual compounds at various concentrations. IC50's were computed using a 4 parameter fit non-linear curve fitting software package (XLFIT, part of the database package, ActivityBase (IDBS)) where the four parameters were IC50, Hill slope, pre-transitional baseline (0% INH), and post-transitional baseline (100% INH); with the latter two parameters being fixed to zero and 100%, respectively, by default.

The next assay addresses T1, PRC2 containing wt EZH2 (Homo sapiens, UniProt Q15910).
T1 construct: made in house
Put plainly: EZH2 pep BSA Brij 4.0 LowE (IC50): 3H-SAM incorporation into biotinylated H3 peptide. In kind it is biochemical. Particulars: 20 pM PRC2 wt EZH2, 0.9 μM 3H-SAM, biotinylated H3 peptide substrate, 2 μM H3K27me3 activating peptide. The method in brief:
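PRC2 (wt EZH2, 20 pM) pre-incubated 120 min with compound, 0.9 μM 3H-SAM and 2 μM H3K27me3 activating peptide in pH 8.5 Tris/DTT/Brij-35/0.1% BSA, 0.8% DMSO. Biotinylated H3K27me1 peptide added (2 μM stock), 5 h at room temperature, EDTA/SAH quench, streptavidin Flashplate capture. IC50 from four-parameter fit versus full-activity and no-enzyme controls.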

A further assay relates to H3K27me3 mark. Put plainly: H3K27me3 Alpha Hela Assay (AlphaLISA). Particulars: Homo sapiens, HeLa, 72 h, Hela cells, read-out: EZH2 Cell H3K27me3 Alpha HeLa (EC50 K27me3). In kind it is cell-based. The method in brief:
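HeLa cells at 1,000/well were treated with ten 3-fold compound doses for 72 h at 37 °C. After lysis and histone extraction, H3K27me3 was detected by AlphaLISA with anti-K27me3 acceptor beads, biotinylated anti-H3 (C-ter) antibody (3 nM final) and streptavidin donor beads (20 μg/mL final). Signals were normalized to DMSO and curve-fitted for EC50.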
(Bead proximity is the source of the signal in Alpha formats.)

Where two headings read alike, the source gives them in different places. A value given as a limit tells only on which side of the number the result lay.

EZH2, sequence (Q15910 whole entry): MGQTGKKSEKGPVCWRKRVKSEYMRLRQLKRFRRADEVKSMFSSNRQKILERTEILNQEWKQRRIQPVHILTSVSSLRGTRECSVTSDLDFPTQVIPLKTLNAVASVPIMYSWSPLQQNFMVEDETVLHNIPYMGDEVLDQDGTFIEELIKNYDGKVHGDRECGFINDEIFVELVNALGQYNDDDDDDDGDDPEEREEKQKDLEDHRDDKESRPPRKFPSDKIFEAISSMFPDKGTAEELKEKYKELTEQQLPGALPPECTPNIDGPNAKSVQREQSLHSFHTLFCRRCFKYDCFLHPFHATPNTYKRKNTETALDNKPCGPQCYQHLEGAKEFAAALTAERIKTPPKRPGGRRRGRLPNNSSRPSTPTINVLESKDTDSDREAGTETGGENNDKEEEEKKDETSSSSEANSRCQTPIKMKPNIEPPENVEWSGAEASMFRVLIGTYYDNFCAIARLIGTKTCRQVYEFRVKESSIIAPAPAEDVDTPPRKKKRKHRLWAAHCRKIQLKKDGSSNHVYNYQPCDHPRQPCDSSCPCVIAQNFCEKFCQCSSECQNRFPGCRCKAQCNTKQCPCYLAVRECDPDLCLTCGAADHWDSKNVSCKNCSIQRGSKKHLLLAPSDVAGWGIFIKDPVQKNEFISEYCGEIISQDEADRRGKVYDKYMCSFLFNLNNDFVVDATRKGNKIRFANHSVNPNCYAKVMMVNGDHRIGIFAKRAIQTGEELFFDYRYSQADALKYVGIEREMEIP
EZH2, sequence (O75530 whole entry partner): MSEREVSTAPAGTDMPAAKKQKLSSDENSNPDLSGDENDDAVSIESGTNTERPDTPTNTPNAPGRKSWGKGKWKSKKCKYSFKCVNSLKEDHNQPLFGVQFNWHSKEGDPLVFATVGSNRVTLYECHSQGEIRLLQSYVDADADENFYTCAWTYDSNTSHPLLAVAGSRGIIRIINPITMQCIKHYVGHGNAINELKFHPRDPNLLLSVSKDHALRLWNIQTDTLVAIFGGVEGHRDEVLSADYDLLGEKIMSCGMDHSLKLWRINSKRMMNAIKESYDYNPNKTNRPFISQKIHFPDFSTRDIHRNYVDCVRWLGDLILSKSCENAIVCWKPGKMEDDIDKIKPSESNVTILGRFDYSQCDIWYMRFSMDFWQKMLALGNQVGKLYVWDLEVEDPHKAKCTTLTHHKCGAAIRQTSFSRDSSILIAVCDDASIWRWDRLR
EZH2, sequence (Q15022 whole entry partner): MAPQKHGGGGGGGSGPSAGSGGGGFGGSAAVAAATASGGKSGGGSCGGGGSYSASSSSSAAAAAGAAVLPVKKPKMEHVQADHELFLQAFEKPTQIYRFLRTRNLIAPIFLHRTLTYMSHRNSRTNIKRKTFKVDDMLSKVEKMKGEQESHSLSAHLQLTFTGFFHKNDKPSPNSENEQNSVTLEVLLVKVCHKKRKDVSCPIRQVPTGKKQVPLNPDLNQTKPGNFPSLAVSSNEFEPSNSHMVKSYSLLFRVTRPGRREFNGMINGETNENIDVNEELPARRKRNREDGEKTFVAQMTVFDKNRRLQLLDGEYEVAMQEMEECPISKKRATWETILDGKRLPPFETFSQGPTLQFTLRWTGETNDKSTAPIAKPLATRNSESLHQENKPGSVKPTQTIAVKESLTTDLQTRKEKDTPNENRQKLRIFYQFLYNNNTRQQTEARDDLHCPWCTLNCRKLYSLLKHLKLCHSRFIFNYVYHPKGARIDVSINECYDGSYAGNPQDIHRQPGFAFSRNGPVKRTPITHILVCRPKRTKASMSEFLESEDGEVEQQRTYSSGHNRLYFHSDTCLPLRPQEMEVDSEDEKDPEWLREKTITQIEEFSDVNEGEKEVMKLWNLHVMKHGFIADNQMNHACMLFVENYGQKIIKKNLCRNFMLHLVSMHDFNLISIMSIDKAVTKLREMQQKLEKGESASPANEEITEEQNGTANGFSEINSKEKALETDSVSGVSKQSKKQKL
T1 sequence (Q15910 whole entry): as the sequence (Q15910 whole entry) above
T1 sequence (O75530 whole entry partner): as the sequence (O75530 whole entry partner) above
T1 sequence (Q15022 whole entry partner): as the sequence (Q15022 whole entry partner) above
T1 sequence (Q09028 whole entry partner): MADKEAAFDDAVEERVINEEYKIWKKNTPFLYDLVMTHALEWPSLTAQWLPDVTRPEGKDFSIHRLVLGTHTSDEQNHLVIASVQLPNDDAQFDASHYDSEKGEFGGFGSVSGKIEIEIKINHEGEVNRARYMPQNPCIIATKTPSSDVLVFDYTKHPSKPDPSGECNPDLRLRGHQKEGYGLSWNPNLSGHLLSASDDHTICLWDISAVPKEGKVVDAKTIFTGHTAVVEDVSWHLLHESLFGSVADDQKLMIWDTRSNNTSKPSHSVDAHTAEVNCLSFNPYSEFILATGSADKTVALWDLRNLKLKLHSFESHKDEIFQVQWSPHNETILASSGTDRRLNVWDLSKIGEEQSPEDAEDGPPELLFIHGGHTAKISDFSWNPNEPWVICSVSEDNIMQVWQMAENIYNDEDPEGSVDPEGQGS
T1 sequence (Q6ZN18 whole entry partner): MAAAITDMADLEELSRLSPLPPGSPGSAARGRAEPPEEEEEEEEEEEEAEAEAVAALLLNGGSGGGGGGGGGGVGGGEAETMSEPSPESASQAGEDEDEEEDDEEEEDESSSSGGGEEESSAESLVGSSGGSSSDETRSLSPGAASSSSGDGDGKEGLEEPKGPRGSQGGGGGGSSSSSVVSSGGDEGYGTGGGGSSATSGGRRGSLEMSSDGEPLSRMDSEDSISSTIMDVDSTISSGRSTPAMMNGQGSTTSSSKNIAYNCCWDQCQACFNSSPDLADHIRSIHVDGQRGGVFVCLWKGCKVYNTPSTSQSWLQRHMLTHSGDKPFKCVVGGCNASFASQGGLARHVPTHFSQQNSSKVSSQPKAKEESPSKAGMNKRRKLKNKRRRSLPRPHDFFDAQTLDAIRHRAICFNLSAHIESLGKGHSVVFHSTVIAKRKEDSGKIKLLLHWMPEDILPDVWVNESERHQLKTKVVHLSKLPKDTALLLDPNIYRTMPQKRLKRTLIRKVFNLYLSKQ

As to `COc1cc(C)[nH]c(=O)c1CNC(=O)c1c(C)n(C(C)C2CCN(C3COC3)CC2C(F)(F)F)c2ccccc12` (stereo not drawn) [Compound 8, N-((4-methoxy-6-methyl-2-oxo-1,2-dihydropyridin-3-yl)methyl)-2-methyl-1-(1-(1-(oxetan-3-yl)-3-(trifluoromethyl)piperidin-4-yl)ethyl)-1H-indole-3-carboxamide], the 50% inhibitory concentration (IC50) at EZH2 (EZH2 nuc BSA Brij 1.5 (IC50)) and against PRC2 containing wt EZH2 (EZH2 pep BSA Brij 4.0 LowE (IC50)) was less than 100 nM in each case. Moreover, the EC50 (as a rule, the concentration needed to bring the measured effect to its halfway point) in the assay with H3K27me3 mark is more than 2000 nM.
On to `COc1cc(C)[nH]c(=O)c1CNC(=O)c1c(C)n(C(C)C2CCN(C)C(c3ccc(F)cc3)C2)c2ccccc12` (stereo not drawn) [Compound 33, 1-(1-(2-(4-fluorophenyl)-1-methylpiperidin-4-yl)ethyl)-N-((4-methoxy-6-methyl-2-oxo-1,2-dihydropyridin-3-yl)methyl)-2-methyl-1H-indole-3-carboxamide], for which the IC50 on EZH2 (read-out: EZH2 nuc BSA Brij 1.5 (IC50)) and at PRC2 containing wt EZH2 (read-out: EZH2 pep BSA Brij 4.0 LowE (IC50)) was less than 100 nM in each case. Moreover, the EC50 in the assay on H3K27me3 mark lay within 400 to 2000 nM.
